In PMC8949187, “Study of Structure–Activity Relationships of the Marine Alkaloid Fascaplysin and Its Derivatives as Potent Anticancer Agents” (Marine Drugs, 2022):

What was measured:
TRKA = test system: TRKA; parameters: method as in PMID 28961193; settings: cited from earlier work
22Rv1 cells [1] = assay: Cell cycle progression, flow cytometry with PI staining; assay type: cell-based, human; settings: treated at IC50 (MTT assay) for 48 h
Method: (§1) The effects on cell cycle progression and DNA fragmentation were analyzed by flow cytometry using PI staining, as described before. Cells (2 × 10^5 cells/well) were pre-incubated overnight in 6-well plates and then treated with the investigated drugs in fresh culture media (2 mL/well) for 48 h. Cells were harvested by trypsinization, fixed in 70% EtOH, stained with PI solution and analyzed by FACS Calibur (BD Bioscience, San Jose, CA, USA). The results were quantified using BD Bioscience Cell Quest Pro v.5.2.1. software (BD Bioscience). The cells appearing as a sub-G1 population (containing fragmented DNA) were considered to be apoptotic.

[2] = test system: double-stranded calf thymus DNA; assay: Thiazole orange displacement (DNA intercalation) assay; assay type: binding; settings: 1 µM calf thymus DNA base pairs, 2 µM thiazole orange; 7 min at room temperature; mean ± SD
Method: DNA intercalation activity of the compounds was calculated as an ability to displace thiazole orange (TO) from the double-stranded DNA. For this experiment, a mixture (100 µL) containing 1 µM of double-stranded calf thymus DNA (recalculated as a concentration of base pairs) and 2 µM of thiazole orange (TO) solved in water was prepared. Then, the investigated compounds were added up to final concentrations of 0.39–25 µM; DMSO concentration in the samples was <0.02%. Propidium iodide (PI, positive control) was added up to final concentrations of 0.039–2.5 uM. After 7 min of incubation at room temperature, TO fluorescence was monitored using a multimodal plate reader TECAN Spark (Tecan Group Ltd., Männedorf Switzerland) at the excitation λ = 480 nm; fluorescence was recorded at λ = 530 nm. The bandwidth was 10 nm. The concentration of the drug that caused a decrease in TO fluorescence by 50% (EC50) was determined by approximating the experimental data using a non-linear regression algorithm and calculated using the GraphPad Prism software v.9.1.1 (GraphPad Software, San Diego, CA, USA).

22Rv1 cells [3] = assay: Trypan blue-based viability assay; assay type: cell-based, human; settings: Homo sapiens, 48 h of treatment, mean ± SD, read-out: IC50, trypan blue staining assay
Method: The effect of the drugs on cell viability in terms of cellular membrane integrity was evaluated by the trypan blue exclusion assay as described before. In brief, cells (0.2 × 10^6 cells/well) were seeded in 6-well plates and incubated overnight, and the media was replaced with fresh media (1 mL/well) containing drugs at indicated concentrations. After treatment for 48 h, the cells were harvested by trypsinization, stained with trypan blue and the viability was measured using an automatic Beckman Coulter Vi-CELL (Beckman Coulter, Krefeld, Germany). Trypan blue-positive cells were assumed to have damaged cellular membrane (i.e., dead), whereas trypan blue-negative cells were considered to have an intact cellular membrane (i.e., alive).

VEGFR2 = test system: VEGFR2; parameters: method as in PMID 28961193; settings: cited from earlier work
MRC-9 cells = assay: MTT assay, MRC-9 cells; assay type: cell-based, human; settings: Homo sapiens, MRC9; non-cancer cells; 48 h of treatment; mean ± SD
Method: (§2) The human prostate cancer cell lines PC-3, DU145, 22Rv1 and LNCaP, as well as human prostate non-cancer cell line PNT2 were purchased from ATCC (Manassas, VA, USA). HEK 293T (human embryonic kidney cells) and MRC-9 (human fibroblast cells) cell lines were purchased from ECACC (Salisbury, UK). […] Authentication of all cell lines used was recently performed by a commercial service (Multiplexion GmbH, Heidelberg, Germany).
(§3) Cells were cultured as monolayers at 37 °C in a humidified atmosphere with 5% (v/v) CO2 in the correspondent culture medium: 10% FBS/RPMI medium (RPMI medium supplemented with Glutamax^TM-I (gibco® Life technologies^TM, Paisley, UK) containing 10% fetal bovine serum (FBS, gibco® Life technologies^TM) and 1% penicillin/streptomycin (Invitrogen)) for PNT2, LNCaP, 22Rv1, PC-3 and DU145 and cells; 10% FBS/DMEM medium (DMEM medium supplemented with Glutamax^TM-I (gibco® Life technologies^TM) containing 10% FBS and 1% penicillin/streptomycin (gibco® Life technologies^TM)) for MRC-9 and HEK 293 cells. Cells were continuously kept in culture for a maximum of 3 months, and were regularly checked for stable phenotype and mycoplasma infection.
(§4) Effect of the drugs on cell viability in terms of metabolic activity was assessed by MTT assay, as previously reported. Cells were pre-incubated overnight in 96-well plates (6 × 10^3 cells/well in 100 μL/well) in the correspondent culture media. Then, the medium was replaced with fresh 10% FBS/RPMI medium containing the investigated compounds (100 μL/well), and cells were incubated for 48 h, unless otherwise stated. Next, 10 μL/well of (3-(4,5-dimethylthiazol-2-yl)-2,5-diphenyltetrazolium bromide) reagent (MTT, 5 mg/mL) was added. After 2–4 h of incubation, the media was aspirated and the plates were dried. Then, 50 μL/well of DMSO was added to each well and the cell viability was measured using an Infinite F200PRO reader (TECAN, Männedorf, Switzerland). Results were calculated using the GraphPad Prism software v.9.1.1 (GraphPad Software, San Diego, CA, USA) and are represented as IC50 of the compounds calculated using the cells treated with the solvent alone as a control.

22Rv1 cells [4] = assay: DNA fragmentation (apoptosis, sub-G1), flow cytometry with PI staining; assay type: cell-based, human; settings: treated at IC50 (MTT assay) for 48 h, mean ± SD
Method: as §1

[5] = test system: non-cancer cell lines versus cancer cell lines; assay: Selectivity index from MTT IC50s; assay type: cell-based, human; settings: for Selectivity index, IC50 (non-prostate) / IC50 (prostate): mean IC50 MRC-9 and HEK-293 versus mean IC50 prostate cancer cell lines plus PNT2; for Selectivity index, IC50 (non-prostate) / IC50 (prostate) / Selectivity index, IC50 (non-cancer) / IC50 (cancer): MTT; for Selectivity index, IC50 (non-cancer) / IC50 (cancer): mean IC50 non-cancer cell lines versus mean IC50 cancer cell lines
Method: as §4, with “Next, SAR analysis was performed to identify the structural elements that are beneficial for anticancer activity of the fascaplysin-related molecules. Considering the complex and heterogeneous nature of tumors even within the same patient, we used calculated mean IC50 values of each drug in all prostate cancer cells for further analysis (Figure 2A). To identify the drug candidates with the highest therapeutic potential, the selectivity index (SI) was calculated as mean IC50 in non-cancer cells versus mean IC50 in cancer cells (Figure 2B), or as a mean IC50 in non-cancer (MRC-9 and HEK293) cells versus mean IC50 in prostate cells (cancer PC-3, 22Rv1, DU145, LNCaP and non-cancer PNT2 cells) (Figure 2C). Finally, to estimate the effects on cellular metabolism, we compared the activity evaluated by using trypan blue assay versus MTT assay (Figure 2D). Effect” for “Effect”, “2-4” for “2–4”, “F200PRO” left out

VEGFR3 = test system: VEGFR3; parameters: method as in PMID 28961193; settings: cited from earlier work
tumor growth = test system: tumor growth; parameters: method as in PMID 28961193, PMID 25561006; settings: various in vivo models; cited from earlier work
[6] = test system: prostate cancer cell lines (PC-3, 22Rv1, DU145 and LNCaP); assay: MTT assay, mean over four prostate cancer cell lines; assay type: cell-based; settings: Homo sapiens; mean of MTT IC50 in PC-3, 22Rv1, DU145 and LNCaP; from Table S1 values; read-out: mean IC50 in cancer cells
Method: as §4, with “Next, SAR analysis was performed to identify the structural elements that are beneficial for anticancer activity of the fascaplysin-related molecules. Considering the complex and heterogeneous nature of tumors even within the same patient, we used calculated mean IC50 values of each drug in all prostate cancer cells for further analysis (Figure 2A). To identify the drug candidates with the highest therapeutic potential, the selectivity index (SI) was calculated as mean IC50 in non-cancer cells versus mean IC50 in cancer cells (Figure 2B), or as a mean IC50 in non-cancer (MRC-9 and HEK293) cells versus mean IC50 in prostate cells (cancer PC-3, 22Rv1, DU145, LNCaP and non-cancer PNT2 cells) (Figure 2C). Finally, to estimate the effects on cellular metabolism, we compared the activity evaluated by using trypan blue assay versus MTT assay (Figure 2D). Effect” for “Effect”, “2-4” for “2–4”, “F200PRO” left out

DU145 cells = assay: MTT assay, DU145 cells; assay type: cell-based, human; settings: Homo sapiens, DU-145; prostate cancer cells; 48 h of treatment; mean ± SD
Method: as §2, §3, §4

LNCaP cells = assay: MTT assay, LNCaP cells; assay type: cell-based, human; settings: Homo sapiens, LNCaP; prostate cancer cells; 48 h of treatment; mean ± SD
Method: as §2, §3, §4

HEK-293 cells = assay: MTT assay, HEK-293 cells; assay type: cell-based, human; settings: Homo sapiens, HEK293; non-cancer cells; 48 h of treatment; mean ± SD
Method: as §2, §3, §4

PC-3 cells = assay: MTT assay, PC-3 cells; assay type: cell-based, human; settings: Homo sapiens, PC-3; prostate cancer cells; 48 h of treatment; mean ± SD
Method: as §2, §3, §4

PNT2 cells = assay: MTT assay, PNT2 cells; assay type: cell-based, human; settings: Homo sapiens, PNT2; non-cancer cells; 48 h of treatment; mean ± SD
Method: as §2, §3, §4

22Rv1 cells [7] = assay: MTT assay, 22Rv1 cells; assay type: cell-based, human; settings: Homo sapiens, 22Rv1; prostate cancer cells; 48 h of treatment; mean ± SD
Method: as §2, §3, §4

Row | Cell cycle arrest (at IC50) (22Rv1 cells [1]) | EC50 [2] [µM] | IC50 (22Rv1 cells [3]) [µM] | % of sub-G1 apoptotic cells (at IC50) (22Rv1 cells [4]) [%] | IC50 [6] [µM] | IC50 (DU145 cells) [µM] | IC50 (LNCaP cells) [µM] | IC50 (PC-3 cells) [µM] | IC50 (22Rv1 cells [7]) [µM] | Structure (SMILES) | concentration inhibiting TRKA (TRKA) | concentration inhibiting VEGFR2 (VEGFR2) | IC50 (MRC-9 cells) [µM] | Selectivity index, IC50 (non-prostate) / IC50 (prostate) [5] | Selectivity index, IC50 (non-cancer) / IC50 (cancer) [5] | concentration inhibiting VEGFR3 (VEGFR3) | dose at which tumor growth is inhibited (tumor growth) [mg/kg] | IC50 (HEK-293 cells) [µM] | IC50 (PNT2 cells) [µM] | Selectivity index (SI), for Figure 2B,C ([5]; both SI definitions (Figure 2B,C))
1 | No | > 25 | 2.79 ± 0.223 | 32.38±1 | 1.88 | 2.24 ± 0.18 | 1.41 ± 0.089 | 2.78 ± 0.37 | 1.07 ± 0.094 | O=C1c2ccccc2-[n+]2ccc3c([nH]c4ccc(Br)cc43)c21.[Cl-] [Compound 6, 12,13-dihydro-9-bromo-13-oxopyrido[1,2-a:3,4-b’]diindol-5-ium chloride] |  |  | 15.5 ± 2.5 | 4.54 | 3.65 |  |  | 2.54 ± 1.14 | 2.45 ± 0.95 | 
2 | No | 4.38 ± 0.06 | 5.14 ± 0.22 | 3.83±0.442 | 2.52 | 1.51 ± 0.056 | 0.593 ± 0.091 | 7.28 ± 0.48 | 0.69 ± 0.019 | O=C1c2ccc(Br)cc2-[n+]2ccc3c([nH]c4cc(Br)ccc43)c21 [Compound 8, 3,10-dibromofascaplysin] |  |  | > 50 |  |  |  |  | 0.54 ± 0.048 | 3.49 ± 1.01 | 7–9
3 | No | 0.69 ± 0.02 | 0.259 ± 0.094 | 28.7±3.49 | 0.57 | 0.334 ± 0.034 | 0.361 ± 0.085 | 1.39 ± 0.7 | 0.209 ± 0.072 | O=C1c2ccc(Br)cc2-[n+]2ccc3c([nH]c4cccc(Br)c43)c21.[Cl-] [Compound 9, 12,13-dihydro-3,8-dibromo-13-oxopyrido[1,2-a:3,4-b’]diindol-5-ium chloride] |  |  | 2.07 ± 0.47 | 2.48 | 1.75 |  |  | 0.58 ± 0.099 | 0.369 ± 0.024 | 
4 | No |  | 7.43 ± 0.85 | 23.6±1.2 | 5.72 | 6.91 ± 0.65 | 6.51 ± 2.32 | 5.29 ± 0.132 | 4.15 ± 0.34 | O=C1c2cc(Br)ccc2-[n+]2ccc3c([nH]c4c(Cl)cc(Cl)cc43)c21.[Cl-] [Compound 14, 12,13-dihydro-2-bromo-9,11-dichloro-13-oxopyrido[1,2-a:3,4-b’]diindol-5-ium chloride] |  |  | > 50 | 5.14 | 3.23 |  |  | 2.61 ± 0.429 | 2.75 ± 1.74 | 
5 | No |  | 0.207 ± 0.074 | 16.4±2.47 | 0.33 | 0.444 ± 0.095 | 0.283 ± 0.035 | 0.429 ± 0.1 | 0.156 ± 0.032 | O=C1c2ccccc2-[n+]2c(-c3ccccc3)cc3c([nH]c4ccccc43)c21.[Cl-] [Compound 20, 12,13-dihydro-6-phenyl-13-oxopyrido[1,2-a:3,4-b’]diindol-5-ium chloride] |  |  | 0.86 ± 0.111 | 1.82 | 1.74 |  |  | 0.412 ± 0.066 | 0.44 ± 0.075 | 

Row | Structure (SMILES) | Cell cycle arrest (at IC50) (22Rv1 cells [1]) | EC50 [2] [µM] | IC50 (22Rv1 cells [3]) [µM] | % of sub-G1 apoptotic cells (at IC50) (22Rv1 cells [4]) [%] | IC50 [6] [µM] | IC50 (DU145 cells) [µM] | IC50 (LNCaP cells) [µM] | IC50 (PC-3 cells) [µM] | IC50 (22Rv1 cells [7]) [µM] | concentration inhibiting TRKA (TRKA) | concentration inhibiting VEGFR2 (VEGFR2) | IC50 (MRC-9 cells) [µM] | Selectivity index, IC50 (non-prostate) / IC50 (prostate) [5] | Selectivity index, IC50 (non-cancer) / IC50 (cancer) [5] | concentration inhibiting VEGFR3 (VEGFR3) | dose at which tumor growth is inhibited (tumor growth) [mg/kg] | IC50 (HEK-293 cells) [µM] | IC50 (PNT2 cells) [µM] | Selectivity index (SI), for Figure 2B,C ([5]; both SI definitions (Figure 2B,C))
6 | O=C1c2ccccc2-[n+]2ccc3c([nH]c4ccccc43)c21 [Compound 1, fascaplysin] | G1-phase arrest | 0.53 ± 0.01 | 0.335 ± 0.093 | 11.43±0.843 | 0.55 |  |  |  |  | lower than 3 µM | lower than 3 µM | 0.89 ± 0.046 | 1.26 | 1.09 | lower than 3 µM | 1 to 5 |  |  | 
